The record followed here is US7626042B2, “O-substituted hydroxyaryl derivatives” (Institute of Medicinal Molecular Design, Inc., priority 2002, dated 2009).

Structures can show the parent of a compound that is named as a salt.

The experiment relates to NF-κB activation. Briefly: Inhibitory activity against NF-κB activation, luciferase reporter assay under TNF-α stimulation. The format is cell-based, human. Conditions: HepG2 cells, TNF-α 40 ng/ml, 4 hours; for inhibition at 1 µg/mL / inhibition at 10 µg/mL: Homo sapiens, read-out: Inhibitory Ratio of NF-κ B Activation(%). The method, then: Inhibitory activity against NF-κB activation was measured by referring to the method of Hill et al. (Cell, (USA), in 1993, Vol. 73, No. 2, p. 395-406). Using a transfection reagent(Effectene; QIAGEN), the human hepatoma cell strain HepG2 was transfected with a plasmid (pNFκ Luc Reporter Plasmid; STRATAGENE) integrated with an oligonucleotide having five tandem copies of NF-κB binding sequences(TGGGGACTTTCCGC) on a upstream region of firefly luciferase gene (Luc) according to the QIAGEN's protocol, and the cells were incubated for 6 to 24 hours. Then the cells were cultured for 4 hours after the addition of TNF-α (40 ng/ml) in the presence of a test compound, and intracellular luciferase activity was measured by using PicaGene LT (TOYO INK MFG Co., Ltd.) and a chemical luminescence measurement apparatus(SPECTRAFluor Plus; TECAN). The inhibitory ratio was measured as a ratio relative to a value of the luciferase activity in the absence of the test compound.
In general terms: In a reporter assay the amount or activity of a reporter protein is the signal.

`O=C(Oc1ccc(Cl)cc1C(=O)Nc1cc(C(F)(F)F)cc(C(F)(F)F)c1)c1ccccc1` [Compound 4]: the “Inhibitory Ratio of NF-κ B Activation(%)” value runs as follows: (Drug Concentration 1 μg/mL) 94.2%; (Drug Concentration 10 μg/mL) 97.5%. In the case of `O=C(O)C[C@H](NC(=O)CNC(=O)Oc1ccc(Cl)cc1C(=O)Nc1cc(C(F)(F)F)cc(C(F)(F)F)c1)C(=O)O` [Compound 64], the “Inhibitory Ratio of NF-κ B Activation(%)” value is, setting by setting: (Drug Concentration 1 μg/mL) 96.3%; (Drug Concentration 10 μg/mL) 97.5%. Regarding `O=C(Oc1ccccc1C(=O)Nc1cc(C(F)(F)F)ccc1C(F)(F)F)c1ccccc1O` [Compound 131], the “Inhibitory Ratio of NF-κ B Activation(%)” value (Drug Concentration 1 μg/mL) is reported as more than 99.9%. As for `CC(=O)OCOc1ccc(Cl)cc1C(=O)Nc1cc(C(F)(F)F)cc(C(F)(F)F)c1` [Compound 98], the “Inhibitory Ratio of NF-κ B Activation(%)” value was determined as 94.9% (Drug Concentration 1 μg/mL) and 96.6% (Drug Concentration 10 μg/mL). The corresponding values for `O=C(COc1ccccc1)Oc1ccc(Cl)cc1C(=O)Nc1cc(C(F)(F)F)cc(C(F)(F)F)c1` [Compound 12] are 95.5% and 97.5%. Turning to `CC(C)(Oc1ccc(Cl)cc1)C(=O)Oc1ccc(Cl)cc1C(=O)Nc1cc(C(F)(F)F)cc(C(F)(F)F)c1` [Compound 16], the “Inhibitory Ratio of NF-κ B Activation(%)” value was found to be 96.6% (Drug Concentration 1 μg/mL) and 98.4% (Drug Concentration 10 μg/mL). For `O=C(Nc1cc(C(F)(F)F)ccc1Cl)c1cc(Br)ccc1OP(=O)([O-])O.[Na+]` [Compound 136], the “Inhibitory Ratio of NF-κ B Activation(%)” value (Drug Concentration 1 μg/mL) was more than 99.9%. Turning to `O=C(CNC(=O)OCc1ccccc1)Oc1ccc(Cl)cc1C(=O)Nc1cc(C(F)(F)F)cc(C(F)(F)F)c1` [Compound 21], the “Inhibitory Ratio of NF-κ B Activation(%)” value runs as follows: (Drug Concentration 1 μg/mL) 96.7%; (Drug Concentration 10 μg/mL) 98.7%. For `CC(=O)OC[C@H]1O[C@@H](Oc2ccc(Cl)cc2C(=O)Nc2cc(C(F)(F)F)cc(C(F)(F)F)c2)[C@H](OC(C)=O)[C@@H](OC(C)=O)[C@@H]1OC(C)=O` [Compound 112], the “Inhibitory Ratio of NF-κ B Activation(%)” value (Drug Concentration 1 μg/mL) was found to be 47.2% and the “Inhibitory Ratio of NF-κ B Activation(%)” value (Drug Concentration 10 μg/mL) amounted to 49.5%. In the case of `O=C(Nc1cc(C(F)(F)F)cc(C(F)(F)F)c1)c1cc(Cl)ccc1OC(=O)N1CCOCC1` [Compound 71], the “Inhibitory Ratio of NF-κ B Activation(%)” value worked out at 70.6% (Drug Concentration 1 μg/mL) and 78.0% (Drug Concentration 10 μg/mL). For `CC(C)(C)C(=O)c1sc(NC(=O)c2cc(Cl)ccc2OP(=O)([O-])O)nc1C(C)(C)C.[Na+]` [Compound 128], the “Inhibitory Ratio of NF-κ B Activation(%)” value reads like this: (Drug Concentration 1 μg/mL) more than 99.9%; (Drug Concentration 10 μg/mL) more than 99.9%.

As to `CC(C)C[C@H](N)C(=O)N[C@@H](Cc1ccccc1)C(=O)Oc1ccc(Cl)cc1C(=O)Nc1cc(C(F)(F)F)cc(C(F)(F)F)c1` [Compound 41, 5-Chloro-2-[N-(L-leucyl)-L-phenylalanyl]oxy-N-[3,5-bis(trifluoromethyl)phenyl]-benzamide hydrochloride], the inhibition at 1 µg/mL (Drug Concentration 1 μg/mL) is 91.4%. Moreover, the inhibition at 10 µg/mL (Drug Concentration 10 μg/mL) was 99.1%.

`CC(C)(C)c1cc(NC(=O)c2cc(Br)ccc2OP(=O)([O-])O)cc(C(C)(C)C)c1.[Na+]` [Compound 145]: under “Drug Concentration 1 μg/mL”, the “Inhibitory Ratio of NF-κ B Activation(%)” value turned out to be 93.1%. Take `CS(=O)(=O)Oc1ccc(Cl)cc1C(=O)Nc1cc(C(F)(F)F)cc(C(F)(F)F)c1` [Compound 44]: the “Inhibitory Ratio of NF-κ B Activation(%)” value is, setting by setting: (Drug Concentration 1 μg/mL) 85.9%; (Drug Concentration 10 μg/mL) 98.6%. Regarding `CCCS(=O)(=O)Oc1ccc(Cl)cc1C(=O)Nc1cc(C(F)(F)F)cc(C(F)(F)F)c1` [Compound 45], the “Inhibitory Ratio of NF-κ B Activation(%)” value is, setting by setting: (Drug Concentration 1 μg/mL) 84.7%; (Drug Concentration 10 μg/mL) 95.4%. Regarding `O=C(Nc1cc(C(F)(F)F)cc(C(F)(F)F)c1)c1cc(Cl)ccc1OCCO` [Compound 107], the “Inhibitory Ratio of NF-κ B Activation(%)” value runs as follows: (Drug Concentration 1 μg/mL) 47.4%; (Drug Concentration 10 μg/mL) 52.1%. Consider `O=C(Nc1cc(C(F)(F)F)cc(C(F)(F)F)c1)c1cc(Cl)ccc1OC(=O)N1CCCC1` [Compound 70], for which the “Inhibitory Ratio of NF-κ B Activation(%)” value by setting is: (Drug Concentration 1 μg/mL) 48.1%; (Drug Concentration 10 μg/mL) 89.6%. Turning to `COc1cc(NC(=O)c2cc(Br)ccc2OC(=O)N2CCOCC2)cc(C(F)(F)F)c1` [Compound 87, 5-Bromo-N-[3-methoxy-5-(trifluoromethyl)phenyl]-2-[(morpholinocarbonyl)oxy]-benzamide], where the note is “Drug Concentration 1 μg/mL”, the inhibition at 1 µg/mL worked out at 29.7%. Also, where the note is “Drug Concentration 10 μg/mL”, the inhibition at 10 µg/mL came out at 55.4%. As to `O=C(Nc1cc(C(F)(F)F)ccc1C(F)(F)F)c1cc(Br)cc(Br)c1OC(=O)N1CCOCC1` [Compound 130, 3,5-Dibromo-2-(morpholinocarbonyl)oxy-N-[2,5-bis(trifluoromethyl)phenyl]-benzamide], the inhibition at 1 µg/mL (Drug Concentration 1 μg/mL) worked out at 18.9%. On to `Cl.Cl.NCCCC[C@H](N)C(=O)Oc1ccc(Cl)cc1C(=O)Nc1cc(C(F)(F)F)cc(C(F)(F)F)c1` [Compound 34], for which the “Inhibitory Ratio of NF-κ B Activation(%)” value was found to be 51.9% (Drug Concentration 1 μg/mL) and 99.5% (Drug Concentration 10 μg/mL). For the compound `O=C(CCC(=O)Oc1ccc(Cl)cc1C(=O)Nc1cc(C(F)(F)F)cc(C(F)(F)F)c1)OCc1ccccc1` [Compound 18], the “Inhibitory Ratio of NF-κ B Activation(%)” value is 95.4% (Drug Concentration 1 μg/mL) and 98.1% (Drug Concentration 10 μg/mL). On to `CC(C)(C)OC(=O)[C@H](Cc1ccccc1)NC(=O)CNC(=O)Oc1ccc(Cl)cc1C(=O)Nc1cc(C(F)(F)F)cc(C(F)(F)F)c1` [Compound 61, (S)-2-[N-({N-[1-(tert-butoxycarbonyl)-2-phenylethyl]carbamoyl}methyl)carbamoyl]oxy-5-chloro-N-[3,5-bis(trifluoromethyl)phenyl]benzamide], for which, under “Drug Concentration 1 μg/mL”, the inhibition at 1 µg/mL came to 98.6%. The inhibition at 10 µg/mL (Drug Concentration 10 μg/mL) is 99.2%. Consider `CC(C)[C@H](N)C(=O)Oc1ccc(Cl)cc1C(=O)Nc1cc(C(F)(F)F)cc(C(F)(F)F)c1.Cl` [Compound 25], for which the “Inhibitory Ratio of NF-κ B Activation(%)” value is, setting by setting: (Drug Concentration 1 μg/mL) 93.4%; (Drug Concentration 10 μg/mL) 97.2%.

Regarding `COCC(=O)Oc1ccc(Cl)cc1C(=O)Nc1cc(C(F)(F)F)cc(C(F)(F)F)c1` [Compound 10], the “Inhibitory Ratio of NF-κ B Activation(%)” value runs as follows: (Drug Concentration 1 μg/mL) 95.3%; (Drug Concentration 10 μg/mL) 97.4%.

Take `O=C(COc1ccc(Cl)cc1C(=O)Nc1cc(C(F)(F)F)cc(C(F)(F)F)c1)OCc1ccccc1` [Compound 110, 2-[(benzyloxy)carbonyl]methoxy-5-chloro-N-[3,5-bis(trifluoromethyl)phenyl]-benzamide]: the inhibition at 1 µg/mL (Drug Concentration 1 μg/mL) is 38.5%. Further, the inhibition at 10 µg/mL (Drug Concentration 10 μg/mL) came out at 39.2%.

`CC(=O)OCC(=O)Oc1ccc(Cl)cc1C(=O)Nc1cc(C(F)(F)F)cc(C(F)(F)F)c1` [Compound 11]: the “Inhibitory Ratio of NF-κ B Activation(%)” value stood at 97.3% (Drug Concentration 1 μg/mL) and 99.2% (Drug Concentration 10 μg/mL). The matching figures for `O=C(CCC(=O)N1CCCCC1)Oc1ccc(Cl)cc1C(=O)Nc1cc(C(F)(F)F)cc(C(F)(F)F)c1` [Compound 19]: 97.9% and 98.8%. The corresponding values for `O=C(Nc1cc(C(F)(F)F)cc(C(F)(F)F)c1)c1cc(Cl)ccc1OP(=O)([O-])O.[Na+]` [Compound 52] are 76.3% and 96.5%.

Turning to `CC(C)(C)OC(=O)C[C@H](NC(=O)CNC(=O)Oc1ccc(Cl)cc1C(=O)Nc1cc(C(F)(F)F)cc(C(F)(F)F)c1)C(=O)OC(C)(C)C` [Compound 63, (S)-2-[N-({N-[1,2-di(tert-butoxycarbonyl)ethyl]carbamoyl}-methyl)carbamoyl]oxy-5-chloro-N-[3,5-bis(trifluoromethyl)phenyl]benzamide], where the note is “Drug Concentration 1 μg/mL”, the inhibition at 1 µg/mL was found to be 97.1%. Moreover, under “Drug Concentration 10 μg/mL”, the inhibition at 10 µg/mL turned out to be 98.2%.

On to `CC(C)C[C@H](NC(=O)[C@H](CCCCNC(=O)OC(C)(C)C)NC(=O)OC(C)(C)C)C(=O)Oc1ccc(Cl)cc1C(=O)Nc1cc(C(F)(F)F)cc(C(F)(F)F)c1` [Compound 39, 2-{N-[N^α,N^ε-di(tert-butoxycarbonyl)-L-lysyl]-L-leucyl}oxy-5-chloro-N-[3,5-bis(trifluoromethyl)phenyl]benzamide], for which the inhibition at 1 µg/mL (Drug Concentration 1 μg/mL) was found to be 96.7%. The inhibition at 10 µg/mL (Drug Concentration 10 μg/mL) was 98.4%. On to `COc1ccccc1NC(=O)c1cc2cc(Br)ccc2cc1OP(=O)(O)O` [Compound 53], for which the “Inhibitory Ratio of NF-κ B Activation(%)” value (Drug Concentration 1 μg/mL) is listed as 21.5% and the “Inhibitory Ratio of NF-κ B Activation(%)” value (Drug Concentration 10 μg/mL) is 92.0%. As for `O=C(O)C1Oc2ccc(Cl)cc2C(=O)N1c1cc(C(F)(F)F)cc(C(F)(F)F)c1` (stereo not drawn) [Compound 116], the inhibition at 1 µg/mL (Drug Concentration 1 μg/mL) was 35.1%. The inhibition at 10 µg/mL (Drug Concentration 10 μg/mL) came out at 20.1%.

As to `CC(=O)NCC(=O)Oc1ccc(Cl)cc1C(=O)Nc1cc(C(F)(F)F)cc(C(F)(F)F)c1` [Compound 20], the “Inhibitory Ratio of NF-κ B Activation(%)” value runs as follows: (Drug Concentration 1 μg/mL) 94.8%; (Drug Concentration 10 μg/mL) 98.1%. For the compound `O=C(Nc1cc(C(F)(F)F)cc(C(F)(F)F)c1)c1cc(Cl)ccc1OP(=O)(O)O` [Compound 51, 5-chloro-2-phosphonooxy-N-[3,5-bis(trifluoromethyl)phenyl]benzamide], under “Drug Concentration 1 μg/mL”, the inhibition at 1 µg/mL came to 89.7%. For the same compound, under “Drug Concentration 10 μg/mL”, the inhibition at 10 µg/mL came out at 96.6%. The matching figures for `CCC(C)(C)c1ccc(Oc2ccccc2)c(-n2c(=O)oc3ccc(Cl)cc3c2=O)c1` [Compound 118, 6-Chloro-3-[5-(1,1-dimethyl)propyl-2-phenoxyphenyl]-3,4-dihydro-2H-1,3-benzoxazine-2,4-dione]: 94% and 97.4%.
